Assay results published in patent US20050208496A1, “Methods of testing for bronchial asthma or chronic obstructive pulmonary disease” (Genox Research, Inc., priority 2002, published 2005).

Tested on: respiratory epithelial cells

For “IL-13: human IL-13 (Peprotech, Inc.) added to the medium at 50 ng/mL to stimulate respiratory epithelial cells”, the “DPP4 (34823_at) expression fold change upon IL-13 stimulation” value (lot 2, Day 7, AI method) was 10 fold, the “DPYD (38220_at) expression fold change upon IL-13 stimulation” value (lot 2, Day 7, AI method) was 2.1 fold and the “FADS3 (43394_s_at) expression fold change” value (lot 2, Day 7, AI method) was 9.8 fold. For the same substance, the “FLJ10261 (43366_at) expression fold change” value (lot 2, Day 7, AI method) was 7.9 fold, the “FLJ10261 (43963_at) expression fold change” value (lot 2, Day 7, AI method) was 6.2 fold and the “FLJ14281 (50209_at) expression fold change” value (lot 2, Day 7, AI method) was 2 fold. For the same substance, the “FLJ22332 (56959_at) expression fold change” value (lot 2, Day 7, AI method) was 3.6 fold, the “FLJ22693 (53777_at) expression fold change” value (lot 2, Day 7, AI method) was 1.6 fold and the “G1P3 (1358_s_at) expression, fold change upon IL-13 stimulation” value (lot 2, Day 7, AI method) was 10.9 fold. The “H11 (56474_at) expression fold change” value (lot 2, Day 7, AI method) was 2.1 fold, the “HDAC9 (37483_at) expression fold change upon IL-13 stimulation” value (lot 2, Day 7, AI method) was 26.1 fold and the “HLA-F (37420_i_at) expression, fold change upon IL-13 stimulation” value (lot 2, Day 7, AI method) was 2.8 fold. For the same substance, the “HLA-F (37421_f_at) expression, fold change upon IL-13 stimulation” value (lot 2, Day 7, AI method) was 2.2 fold, the “HLA-F (49203_f_at) expression fold change” value (lot 2, Day 7, AI method) was 2.8 fold and the “HLALS (34427_g_at) expression, fold change upon IL-13 stimulation” value (lot 2, Day 7, AI method) was 2 fold. For the same substance, the “HS3ST1 (41556_s_at) expression fold change upon IL-13 stimulation” value (lot 2, Day 7, AI method) was 2.5 fold, the “HSD17B2 (38178_at) expression fold change upon IL-13 stimulation” value (lot 2, Day 7, AI method) was 3.5 fold and the “HSPA5 (47634_at) expression fold change” value (lot 2, Day 7, AI method) was 2.6 fold. The “HUMRTVLH3 (34702_f_at) expression, fold change upon IL-13 stimulation” value (lot 2, Day 7, AI method) was 3.1 fold, the “Human hbc647 mRNA sequence (34759_at) expression, fold change upon IL-13 stimulation” value (lot 2, Day 7, AI method) was 2.9 fold and the “ICAMt (32640_at) expression fold change upon IL-13 stimulation” value (lot 2, Day 7, AI method) was 4.1 fold. For the same substance, the “IFI27 (425_at) expression, fold change upon IL-13 stimulation” value (lot 2, Day 7, AI method) was 4.7 fold, the “IFI27 (48864_at) expression fold change” value (lot 2, Day 7, AI method) was 3.3 fold and the “IFI30 (39728_at) expression, fold change upon IL-13 stimulation” value (lot 2, Day 7, AI method) was 2.3 fold. For the same substance, the “IFIT1 (915_at) expression, fold change upon IL-13 stimulation” value (lot 2, Day 7, AI method) was 7.7 fold, the “IFIT4 (38584_at) expression, fold change upon IL-13 stimulation” value (lot 2, Day 7, AI method) was 3.6 fold and the “IL13RA2 (1016_s_at) expression fold change upon IL-13 stimulation” value (lot 2, Day 7, AI method) was 36.5 fold. The “IRF7 (36412_s_at) expression fold change” value (lot 2, Day 7, AI method) was 3.6 fold, the “IRLB (32961_at) expression fold change” value (lot 2, Day 7, AI method) was 2 fold and the “ISG15 (1107_s_at) expression, fold change upon IL-13 stimulation” value (lot 2, Day 7, AI method) was 4.3 fold. The “ISG15 (38432_at) expression, fold change upon IL-13 stimulation” value (lot 2, Day 7, AI method) was 6.9 fold, the “KIAA0469 (37230_at) expression, fold change upon IL-13 stimulation” value (lot 2, Day 7, AI method) was 3 fold and the “KIAA0537 (33787_at) expression, fold change upon IL-13 stimulation” value (lot 2, Day 7, AI method) was 4.8 fold. The “KIAA1199 (36070_at) expression, fold change upon IL-13 stimulation” value (lot 2, Day 7, AI method) was 3.4 fold, the “KIAA1268 (57050_at) expression fold change” value (lot 2, Day 7, AI method) was 1.7 fold and the “KIAAI268 (59516_at) expression fold change” value (lot 2, Day 7, AI method) was 5.9 fold. The “KRT16 (601_s_at) expression fold change” value (lot 2, Day 7, AI method) was 2 fold, the “LAMP3 (37168_at) expression, fold change upon IL-13 stimulation” value (lot 2, Day 7, AI method) was 3 fold and the “LOC64116 (40456_at) expression, fold change upon IL-13 stimulation” value (lot 2, Day 7, AI method) was 3 fold. For the same substance, the “LRPAP1 (36194_at) expression, fold change upon IL-13 stimulation” value (lot 2, Day 7, AI method) was 2.2 fold, the “MAT2A (32571_at) expression fold change upon IL-13 stimulation” value (lot 2, Day 7, AI method) was 2.9 fold and the “MDA5 (51920_at) expression fold change” value (lot 2, Day 7, AI method) was 2.8 fold. For the same substance, the “MED6 (35432_at) expression fold change” value (lot 2, Day 7, AI method) was 2 fold, the “MET (1609_g_at) expression, fold change upon IL-13 stimulation” value (lot 2, Day 7, AI method) was 3.4 fold and the “MET (1812_s_at) expression, fold change upon IL-13 stimulation” value (lot 2, Day 7, AI method) was 5.8 fold. The “MET (35684_at) expression, fold change upon IL-13 stimulation” value (lot 2, Day 7, AI method) was 2.4 fold, the “MFHAS1 (50388_at) expression fold change” value (lot 2, Day 7, AI method) was 2.4 fold and the “MICB (35937_at) expression, fold change upon IL-13 stimulation” value (lot 2, Day 7, AI method) was 5.6 fold. The “MKP-L (38272_at) expression, fold change upon IL-13 stimulation” value (lot 2, Day 7, AI method) was 5.1 fold, the “MMP7 (668_s_at) expression, fold change upon IL-13 stimulation” value (lot 2, Day 7, AI method) was 2 fold and the “MP1 (34839_at) expression, fold change upon IL-13 stimulation” value (lot 2, Day 7, AI method) was 2.4 fold. For the same substance, the “MXI (37014_at) expression fold change” value (lot 2, Day 7, AI method) was 4.2 fold, the “NCF2 (41038_at) expression fold change” value (lot 2, Day 7, AI method) was 4.2 fold and the “NFIL3 (37544_at) expression fold change” value (lot 2, Day 7, AI method) was 2.7 fold. For the same substance, the “NTRK1 (36805_s_at) expression, fold change upon IL-13 stimulation” value (lot 2, Day 7, AI method) was 4.9 fold, the “OAF (39695_at) expression, fold change upon IL-13 stimulation” value (lot 2, Day 7, AI method) was 11.4 fold and the “OSF-2 (1451_s_at) expression fold change upon IL-13 stimulation” value (lot 2, Day 7, AI method) was 46.4 fold. For the same substance, the “PAK2 (1560_g_at) expression, fold change upon IL-13 stimulation” value (lot 2, Day 7, AI method) was 3.8 fold, the “PITPNB (353_at) expression, fold change upon IL-13 stimulation” value (lot 2, Day 7, AI method) was 2 fold and the “PITPNB (35017_f_at) expression, fold change upon IL-13 stimulation” value (lot 2, Day 7, AI method) was 2.4 fold. The “PMCH (32005_at) expression fold change” value (lot 2, Day 7, AI method) was 4.3 fold, the “PSMB9 (38287_at) expression fold change upon IL-13 stimulation” value (lot 2, Day 7, AI method) was 2.4 fold and the “PVRL2 (50320_g_at) expression fold change” value (lot 2, Day 7, AI method) was 2.2 fold. For the same substance, the “RASGRP1 (33291_at) expression fold change” value (lot 2, Day 7, AI method) was 4.2 fold, the “SECTM1 (41045_at) expression, fold change upon IL-13 stimulation” value (lot 2, Day 7, AI method) was 4.6 fold and the “SERPINB2 (37185_at) expression fold change” value (lot 2, Day 7, AI method) was 3.4 fold. For the same substance, the “SERPINB4 (1549_s_at) expression fold change” value (lot 2, Day 7, AI method) was 15 fold, the “SIAT1 (41352_at) expression fold change upon IL-13 stimulation” value (lot 2, Day 7, AI method) was 2.4 fold and the “SLC26A4, pendrin (36376_at) expression fold change” value (lot 2, Day 7, AI method) was 58.2 fold. For the same substance, the “SPHK1 (51923_at) expression fold change” value (lot 2, Day 7, AI method) was 2.5 fold, the “SSI-1 (41592_at) expression, fold change upon IL-13 stimulation” value (lot 2, Day 7, AI method) was 11.3 fold and the “STAT1 (32859_at) expression fold change” value (lot 2, Day 7, AI method) was 2.6 fold. For the same substance, the “STAT1 (33339_g_at) expression fold change” value (lot 2, Day 7, AI method) was 2.5 fold, the “TGFB2 (1262_s_at) expression fold change upon IL-13 stimulation” value (lot 2, Day 7, AI method) was 5.9 fold and the “TGM2 (38404_at) expression fold change upon IL-13 stimulation” value (lot 2, Day 7, AI method) was 6 fold. For the same substance, the “TSPAN-3 (38612_at) expression, fold change upon IL-13 stimulation” value (lot 2, Day 7, AI method) was 2.7 fold, the “TXNRD1 (39425_at) expression fold change upon IL-13 stimulation” value (lot 2, Day 7, AI method) was 3.3 fold and the “UFD1L (811_at) expression, fold change upon IL-13 stimulation” value (lot 2, Day 7, AI method) was 3.2 fold. The “W06879 (57696_at) expression fold change” value (lot 2, Day 7, AI method) was 2 fold, the “ZNF263 (33288_i_at) expression fold change” value (lot 2, Day 7, AI method) was 2 fold and the “cig5 (38549_at) expression, fold change upon IL-13 stimulation” value (lot 2, Day 7, AI method) was 7.4 fold. The “AA045020 (44676_at) expression change” value (lot 2 Day 7 AI) was −7.1, the “AA053401 (56234_r_at) expression change” value (lot 2 Day 7 AI) was −3.2 and the “AA059445 46293_at expression change” value (lot 2 Day 7 AI) was −11.7. The “AA059458 (65626_at) expression change” value (lot 2 Day 7 AI) was −4.6, the “AA079839 (69289_at) expression change” value (lot 2 Day 7 AI) was −2.3 and the “AA151265 (60939_i_at) expression change” value (lot 2 Day 7 AI) was −2.7. The “AA151265 (60940_r_at) expression change” value (lot 2 Day 7 AI) was −11.6, the “AA160156 (47578_at) expression change” value (lot 2 Day 7 AI) was −3.1 and the “AA203423 (65699_at) expression change” value (lot 2 Day 7 AI) was −4.7. The “AA369887 (87539_i_at) expression change” value (lot 2 Day 7 AI) was −2.6, the “AA398155 (48999_at) expression change” value (lot 2 Day 7 AI) was −3.8 and the “AA400080 (57282_at) expression change” value (lot 2 Day 7 AI) was −4.1. The “AA422178 (53747_at) expression change” value (lot 2 Day 7 AI) was −32.2, the “AA428312 (83988_at) expression change” value (lot 2 Day 7 AI) was −5.4 and the “AA442232 (59109_at) expression change” value (lot 2 Day 7 AI) was −2.2. For the same substance, the “AA456099 (59567_at) expression change” value (lot 2 Day 7 AI) was −3.5, the “AA772055 46104_at expression change” value (lot 2 Day 7 AI) was −15.1 and the “AA779895 59136_at expression change” value (lot 2 Day 7 AI) was −6.6. For the same substance, the “ABCC5 1932_at expression change” value (lot 2 Day 7 AI) was −5, the “AF052107 38262_at expression change” value (lot 2 Day 7 AI) was −6.5 and the “AI264299 (84903_f_at) expression change” value (lot 2 Day 7 AI) was −5.9. For the same substance, the “AI432375 (49819_at) expression change” value (lot 2 Day 7 AI) was −5, the “AI669212 55436_at expression change” value (lot 2 Day 7 AI) was −6.9 and the “AI740855 (83076_at) expression change” value (lot 2 Day 7 AI) was −3.5. For the same substance, the “AI761647 40191_s_at expression change” value (lot 2 Day 7 AI) was −4.
